Test results taken from ChEMBL document CHEMBL1201862, “PubChem BioAssay data set” (2004).
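Cells were grown in 96-well plates and exposed to each compound for 48 hours at five concentrations; endpoints were interpolated linearly between bracketing concentrations, or set to the highest concentration if not reached. GI50 is the concentration that inhibits growth by half.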 Activity calls are given as the source filed them. Cut-off read from the data, not from the text of the source: active = GI50 up to about 1.1 µM and inactive = higher.

Key:
Assay in all cases: inhibition of tumour cell growth, NCI panel, 48 h
[1] = system: HCT-15
[2] = system: NCI-H522
[3] = system: HOP-92
[4] = system: SW-620
[5] = system: Malme-3M
[6] = system: SK-MEL-2
[7] = system: NCI-H226
[8] = system: DMS-114
[9] = system: KM12
[10] = system: LXFL 529
[11] = system: UO-31
[12] = system: OVCAR-3
[13] = system: SF-268
[14] = system: HL-60
[15] = system: KM-20L2
[16] = system: A498
[17] = system: SK-MEL-5
[18] = system: NCI-H460
[19] = system: TK-10
[20] = system: SN12C
[21] = system: RPMI-8226
[22] = system: SK-OV-3
[23] = system: OVCAR-4
[24] = system: CCRF-CEM
[25] = system: HT-29
[26] = system: IGROV-1
[27] = system: M19-MEL
[28] = system: SF-539
[29] = system: 786-0
[30] = system: UACC-257
[31] = system: SNB-75
[32] = system: CAKI-1
[33] = system: U-251
[34] = system: K562
[35] = system: RXF 393
[36] = system: XF498
[37] = system: SF-295
[38] = system: M14
[39] = system: COLO 205
[40] = system: OVCAR-5
[41] = system: SK-MEL-28
[42] = system: SNB-78
[43] = system: NCI-H23
[44] = system: DLD-1
[45] = system: ACHN
[46] = system: EKVX
[47] = system: UACC-62
[48] = system: A549
[49] = system: LOX IMVI
[50] = system: MOLT-4
[51] = system: HOP-62
[52] = system: HCC 2998
[53] = system: OVCAR-8
[54] = system: SR
[55] = system: SNB-19
[56] = system: HCT-116

Measured: GI50

O=C1OC(CCCl)(c2ccccc2)CC1CN1CCOCC1 (centres undefined)
inactive: [2] 18.7 µM | [3] 16.6 µM | [4] 17 µM | [5] 18.4 µM | [6] 24.3 µM | [7] 13.8 µM | [8] 20.4 µM | [9] 20.2 µM | [10] 18.8 µM | [11] 68.9 µM | [12] 17.8 µM | [13] 41.4 µM | [14] 9.77 µM | [15] 39.5 µM | [16] > 100 µM | [17] 19.7 µM | [18] 67.3 µM | [19] 16.4 µM | [20] 29.2 µM | [21] 3.84 µM | [22] > 100 µM | [23] 48.4 µM | [24] 11.4 µM | [25] 18.4 µM | [26] 23.6 µM | [27] 22.1 µM | [28] 27.2 µM | [29] 12.1 µM | [30] 22.5 µM | [31] 15.4 µM | [32] 8.49 µM | [33] > 100 µM | [34] 14.8 µM | [35] 17.2 µM | [36] 14.6 µM | [37] 43 µM | [38] 20.4 µM | [39] 18.9 µM | [40] > 100 µM | [41] 19.7 µM | [42] 26.2 µM | [43] 8.95 µM | [44] 17.7 µM | [45] 32.2 µM | [46] 19.9 µM | [47] 21 µM | [48] 80.5 µM | [49] 27.3 µM | [50] 18 µM | [51] 50.5 µM | [52] 26.3 µM | [53] 17.7 µM
20.9 µM: [1]

COC(=O)[C@@]1(C)C(=O)CC[C@@H]1C=O
inactive: [2] > 100 µM | [4] > 100 µM | [5] > 100 µM | [6] > 100 µM | [7] > 100 µM | [8] > 100 µM | [9] > 100 µM | [10] > 100 µM | [11] > 100 µM | [12] > 100 µM | [13] > 100 µM | [14] 60.5 µM | [15] > 100 µM | [16] > 100 µM | [54] 82.2 µM | [17] > 100 µM | [18] > 100 µM | [19] > 100 µM | [20] > 100 µM | [21] > 100 µM | [22] > 100 µM | [23] > 100 µM | [24] > 100 µM | [55] > 100 µM | [25] > 100 µM | [26] > 100 µM | [27] > 100 µM | [28] > 100 µM | [29] > 100 µM | [30] > 100 µM | [32] > 100 µM | [33] > 100 µM | [34] > 100 µM | [56] > 100 µM | [36] > 100 µM | [37] > 100 µM | [38] > 100 µM | [39] > 100 µM | [40] > 100 µM | [42] > 100 µM | [43] > 100 µM | [44] > 100 µM | [45] > 100 µM | [46] > 100 µM | [47] > 100 µM | [48] > 100 µM | [49] > 100 µM | [50] > 100 µM | [51] > 100 µM | [53] > 100 µM
> 100 µM: [1]
